Measured values reported in patent US11051515B2, “3-acyl-benzamides and their use as herbicides” (Bayer Aktiengesellschaft, priority 2017, dated 2021).

Columns and labels:
STEME [1] = test: Post-emergence action against STEME; type: in vivo, Stellaria media; conditions: post-emergence, dosage 80 g/ha; for pest or weed control at 80 g/ha: Stellaria media, 504 h
Description: (§1) Seeds of monocotyledonous and dicotyledonous weed and crop plants are laid out in sandy loam soil in wood-fiber pots, covered with soil and cultivated in a greenhouse under good growth conditions. 2 to 3 weeks after sowing, the test plants are treated at the one-leaf stage. The compounds of the invention, formulated in the form of wettable powders (WP) or as emulsion concentrates (EC), are then sprayed onto the green parts of the plants in the form of an aqueous suspension or emulsion at a water application rate equating to […], with addition of 0.2% wetting agent. After the test plants have been left to stand in the greenhouse under optimal growth conditions for about 3 weeks, the action of the preparations is assessed visually in comparison to untreated controls (herbicidal action in percent (%): 100% activity=the plants have died, 0% activity=like control plants). […] At the same time, inventive compounds leave Gramineae crops such as barley, wheat, rye, millet/Sorghum, corn or rice virtually undamaged when applied post-emergence, even at high active ingredient dosages. In addition, some substances are also harmless to dicotyledonous crops such as soya, cotton, oilseed rape, sugar beet or potatoes. Some of the compounds according to the invention have high selectivity and are therefore suitable for controlling unwanted vegetation in agricultural crops by the post-emergence method. The data of Tables B18 to B34 below illustrate, in an exemplary manner, the […] herbicidal action of the compounds according to the invention, the herbicidal activity being stated in percent.

STEME [2] = test: Pre-emergence action against STEME; type: in vivo, Stellaria media; conditions: Dosage 320 g/ha, pre-emergence; for pest or weed control at 320 g/ha: Stellaria media, 504 h
From the text: (§2) Seeds of monocotyledonous and dicotyledonous weed plants and crop plants are laid out in sandy loam soil in wood-fiber pots and covered with soil. The compounds of the invention, formulated in the form of wettable powders (WP) or as emulsion concentrates (EC), are then applied to the surface of the covering soil in the form of an aqueous suspension or emulsion at a water application rate equating to […], with addition of 0.2% wetting agent. After the treatment, the pots are placed in a greenhouse and kept under good growth conditions for the trial plants. The damage to the test plants is scored visually after a test period of 3 weeks by comparison with untreated controls (herbicidal activity in percent (%): 100% activity=the plants have died, 0% activity=like control plants).

CYPES [3] = test: Post-emergence action against CYPES; type: in vivo, Cyperus esculentus; conditions: post-emergence, dosage 80 g/ha, visual assessment about 3 weeks after treatment vs untreated controls; for pest or weed control at 80 g/ha: Cyperus esculentus, 504 h, read-out: Post-emergence action against CYPES (herbicidal action in percent)
Description: as §1

PHBPU [4] = test: Post-emergence action against PHBPU; type: in vivo, Pharbitis purpurea; conditions: post-emergence, dosage 80 g/ha; for pest or weed control at 80 g/ha: Ipomoea purpurea, 504 h
Description: as §1

MATIN [5] = test: Pre-emergence action against MATIN; type: in vivo, Matricaria inodora; conditions: Dosage 320 g/ha, pre-emergence; for pest or weed control at 320 g/ha: Tripleurospermum inodorum, 504 h
From the text: as §2

AMARE [6] = test: Pre-emergence action against AMARE; type: in vivo, Amaranthus retroflexus; conditions: pre-emergence, dosage 320 g/ha, scored visually after 3 weeks vs untreated controls; for pest or weed control at 320 g/ha: Amaranthus retroflexus, 504 h, read-out: Pre-emergence action against AMARE (herbicidal activity)
From the text: as §2

VIOTR [7] = test: Pre-emergence action against VIOTR; type: in vivo, Viola tricolor; conditions: Dosage 320 g/ha, pre-emergence
From the text: as §2

VERPE [8] = test: Pre-emergence action against VERPE; type: in vivo, Veronica persica; conditions: Dosage 320 g/ha, pre-emergence; for pest or weed control at 320 g/ha: Veronica persica, 504 h
From the text: as §2

ECHCG [9] = test: Post-emergence action against ECHCG; type: in vivo, Echinochloa crus-galli; conditions: post-emergence, dosage 80 g/ha, visual assessment about 3 weeks after treatment vs untreated controls
Description: as §1

AMARE [10] = test: Post-emergence action against AMARE; type: in vivo, Amaranthus retroflexus; conditions: post-emergence, dosage 80 g/ha, visual assessment about 3 weeks after treatment vs untreated controls; for pest or weed control at 80 g/ha: Amaranthus retroflexus, 504 h, read-out: Post-emergence action against AMARE (herbicidal action in percent)
Description: as §1

ECHCG [11] = test: Pre-emergence action against ECHCG; type: in vivo, Echinochloa crus-galli; conditions: pre-emergence, dosage 320 g/ha, scored visually after 3 weeks vs untreated controls
From the text: as §2

ABUTH [12] = test: Pre-emergence action against ABUTH; type: in vivo, Abutilon theophrasti; conditions: pre-emergence, dosage 320 g/ha, scored visually after 3 weeks vs untreated controls
From the text: as §2

VERPE [13] = test: Post-emergence action against VERPE; type: in vivo, Veronica persica; conditions: dosage 80 g/ha
Description: as §1

MATIN [14] = test: Post-emergence action against MATIN; type: in vivo, Matricaria inodora; conditions: post-emergence, dosage 80 g/ha, visual assessment about 3 weeks after treatment vs untreated controls
Description: as §1

ABUTH [15] = test: Post-emergence action against ABUTH; type: in vivo, Abutilon theophrasti; conditions: post-emergence, dosage 80 g/ha, visual assessment about 3 weeks after treatment vs untreated controls
Description: as §1

VIOTR [16] = test: Post-emergence action against VIOTR; type: in vivo, Viola tricolor; conditions: post-emergence, dosage 80 g/ha; for pest or weed control at 80 g/ha: Viola tricolor, 504 h
Description: as §1

CYPES [17] = test: Pre-emergence action against CYPES; type: in vivo, Cyperus esculentus; conditions: pre-emergence, dosage 320 g/ha, scored visually after 3 weeks vs untreated controls
From the text: as §2

SETVI [18] = test: Pre-emergence action against SETVI; type: in vivo, Setaria viridis; conditions: pre-emergence, dosage 320 g/ha, scored visually after 3 weeks vs untreated controls
From the text: as §2

POLCO = test: Pre-emergence action against POLCO; type: in vivo, Polygonum convolvulus; conditions: Dosage 320 g/ha, pre-emergence
From the text: as §2

ALOMY = test: Pre-emergence action against ALOMY; type: in vivo, Alopecurus myosuroides; conditions: dosage 320 g/ha; pre-emergence; scored visually after 3 weeks vs untreated controls; 100% = plants have died, 0% = like control plants
From the text: as §2

AVEFA = test: Pre-emergence action against AVEFA; type: in vivo, Avena fatua; conditions: dosage 320 g/ha, scored visually after 3 weeks vs untreated controls
From the text: as §2

PHBPU [19] = test: Pre-emergence action against PHBPU; type: in vivo, Pharbitis purpurea; conditions: Dosage 320 g/ha, pre-emergence
From the text: as §2

SETVI [20] = test: Post-emergence action against SETVI; type: in vivo, Setaria viridis; conditions: post-emergence, dosage 80 g/ha, visual assessment about 3 weeks after treatment vs untreated controls
Description: as §1

Row | Compound | Post-emergence action against STEME (STEME [1]) | Pre-emergence action against STEME (STEME [2]) | Post-emergence action against PHBPU (PHBPU [4]) | Pre-emergence action against MATIN (MATIN [5]) | Pre-emergence action against AMARE (herbicidal activity) (AMARE [6]) | Pre-emergence action against VIOTR (VIOTR [7]) | Pre-emergence action against VERPE (VERPE [8]) | Post-emergence action against ECHCG (herbicidal action in percent) (ECHCG [9]) | Post-emergence action against AMARE (herbicidal action in percent) (AMARE [10]) | Pre-emergence action against ECHCG (herbicidal activity) (ECHCG [11]) | Pre-emergence action against ABUTH (herbicidal activity) (ABUTH [12]) | Post-emergence action against MATIN (herbicidal action in percent) (MATIN [14]) | Post-emergence action against ABUTH (herbicidal action in percent) (ABUTH [15]) | Post-emergence action against VIOTR (VIOTR [16]) | Pre-emergence action against CYPES (herbicidal activity) (CYPES [17]) | SETVI (Table B8, pre-emergence herbicidal activity) (SETVI [18]) | Pre-emergence action against ALOMY (herbicidal activity in percent) (ALOMY) | other results
1 | CCCn1nnnc1NC(=O)c1ccc(C)c(C(C)=O)c1Cl [3-134] | 100 | 90% | 90 | 90% | 90% | 100% | 80% | 90% | 90% | 100% | 100% | 90% | 80% | 90 |  |  |  | Post-emergence action against CYPES (herbicidal action in percent) (CYPES [3]): 80%; Post-emergence action against VERPE (VERPE [13]): 90
2 | CCCn1nnnc1NC(=O)c1ccc(C)c(C(C)=O)c1C [3-1] | 90 | 90% | 80 | 100% | 100% | 100% |  | 100% | 90% | 90% | 100% | 100% | 80% | 100 | 90% | 90% | 90% | Pre-emergence action against POLCO (POLCO): 90%
3 | CCC(=O)c1c(C)ccc(C(=O)Nc2nnnn2CC)c1Cl [2-135] | 100 | 90% | 90 | 90% | 100% |  | 90% | 90% | 90% | 90% |  | 90% | 80% | 90 |  |  | 90% | Post-emergence action against CYPES (herbicidal action in percent) (CYPES [3]): 80%
4 | CCCn1nnnc1NC(=O)c1ccc(C(F)(F)F)c(C(=O)COC)c1Cl [3-144] | 100 | 100% | 100 | 100% | 100% | 100% | 100% | 80% | 90% | 100% | 100% | 90% | 90% | 80 | 100% | 100% | 90% | Pre-emergence action against AVEFA (herbicidal activity) (AVEFA): 80%; Pre-emergence action against PHBPU (PHBPU [19]): 80%; Post-emergence action against VERPE (VERPE [13]): 80; Post-emergence action against SETVI (herbicidal action in percent) (SETVI [20]): 100%
5 | Cn1nnnc1NC(=O)c1ccc(C(F)(F)F)c(C(=O)C(F)(F)F)c1Cl [1-162] |  |  |  |  |  |  |  |  |  |  |  |  |  |  |  |  |  | pest or weed control at 80 g/ha (STEME [1]): 100%; pest or weed control at 320 g/ha (STEME [2]): 100%; pest or weed control at 80 g/ha (CYPES [3]): 80%; pest or weed control at 80 g/ha (PHBPU [4]): 100%; pest or weed control at 320 g/ha (MATIN [5]): 80%; pest or weed control at 320 g/ha (AMARE [6]): 90%; pest or weed control at 320 g/ha (VIOTR [7]; Viola tricolor, 504 h): 100%; pest or weed control at 320 g/ha (VERPE [8]): 80%; pest or weed control at 80 g/ha (ECHCG [9]; Echinochloa crus-galli, 504 h, read-out: Post-emergence action against ECHCG (herbicidal action in percent)): 90%; pest or weed control at 80 g/ha (AMARE [10]): 100%; pest or weed control at 320 g/ha (ECHCG [11]; Echinochloa crus-galli, 504 h, read-out: Pre-emergence action against ECHCG (herbicidal activity)): 100%; pest or weed control at 320 g/ha (ABUTH [12]; Abutilon theophrasti, 504 h, read-out: Pre-emergence action against ABUTH (herbicidal activity)): 100%; pest or weed control at 320 g/ha (SETVI [18]; Setaria viridis, 504 h, read-out: SETVI (Table B8, pre-emergence herbicidal activity)): 100%; pest or weed control at 80 g/ha (SETVI [20]; Setaria viridis, 504 h, read-out: Post-emergence action against SETVI (herbicidal action in percent)): 80%; pest or weed control at 80 g/ha (ABUTH [15]; Abutilon theophrasti, 504 h, read-out: Post-emergence action against ABUTH (herbicidal action in percent)): 100%; pest or weed control at 80 g/ha (VIOTR [16]): 100%
6 | Cc1ccc(C(=O)Nc2nnnn2C)c(Cl)c1C(=O)C1CC1 [1-136] |  |  |  |  |  |  |  |  |  |  |  |  |  |  |  |  |  | pest or weed control at 80 g/ha (STEME [1]): 100%; pest or weed control at 320 g/ha (STEME [2]): 100%; pest or weed control at 80 g/ha (CYPES [3]): 80%; pest or weed control at 80 g/ha (PHBPU [4]): 90%; pest or weed control at 320 g/ha (MATIN [5]): 100%; pest or weed control at 320 g/ha (AMARE [6]): 80%; pest or weed control at 320 g/ha (VERPE [8]): 80%; pest or weed control at 80 g/ha (AMARE [10]): 90%; pest or weed control at 80 g/ha (VERPE [13]; Veronica persica, 504 h): 90%; pest or weed control at 80 g/ha (MATIN [14]; Tripleurospermum inodorum, 504 h, read-out: Post-emergence action against MATIN (herbicidal action in percent)): 90%; pest or weed control at 80 g/ha (VIOTR [16]): 90%
7 | CCn1nnnc1NC(=O)c1ccc(C(F)(F)F)c(C(=O)C(C)(C)C)c1Cl [2-143] | 90 | 100% |  | 100% | 100% | 100% | 100% |  |  | 90% | 100% |  |  |  | 90% | 80% |  | Pre-emergence action against POLCO (POLCO): 100%
